# EP0326331B1, “Substituted quinolines and cinnolines” (Dow AgroSciences LLC, priority 1988, dated 1989)
# What was measured:
# Format in all cases: in vivo
# [1] = tested on: Botrytis cinerea (gray mold); experiment: Test 1 greenhouse foliar spray screen, gray mold on grape berries; conditions: Botrytis cinerea, foliar; Test 1, spray on grape berries; disease control rating at 400 ppm / 100 ppm
# Piricularia oryzae = conditions: field test, crop rice
# corn rootworm = experiment: Mite/insect screen, CRW; conditions: percent mortality, read-out: CRW RESULTS %; for mortality at 12 ppm: CRW rate 12.00 ppm
# In short: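 Compounds dissolved in 50:50 acetone/alcohol with TOXIMUL R and S emulsifiers (23 and 13 g/L), then diluted in water to the stated test concentrations. Percent mortality of corn rootworm scored after standard exposure periods.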
# [2] = tested on: Twospotted spider mites (Tetranychus urticae Koch); experiment: Mite/insect screen, SM; conditions: for mortality at 200 ppm: rate 200 ppm
# In short: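 Compounds dissolved in 50:50 acetone/alcohol containing sulfonate/nonionic emulsifier blends, then diluted with water to the indicated concentrations. Leaves sprayed on both surfaces to runoff at 10 psi and dried one hour. Percent mortality scored after standard exposure periods.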
# [3] = tested on: Septoria tritici (leaf blotch); experiment: Test 1 greenhouse foliar spray screen, leaf blotch on wheat; conditions: Zymoseptoria tritici; Test 1, foliar spray on wheat; disease control rating at 400 ppm / 100 ppm; read-out: LEAF BLOT
# [4] = tested on: southern armyworm (Spodopetra eridania Cramer); experiment: Mite/insect screen, SAW; conditions: Spodoptera eridania, foliar, percent mortality, foliar spray on squash, read-out: SAW RESULTS %; for mortality at 200 ppm: rate 200 ppm
# In short: (§1)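 Compounds dissolved in acetone/alcohol (50:50) with TOXIMUL R and S emulsifiers, diluted in water to test concentrations, and sprayed to runoff on both leaf surfaces at 10 psi, then dried 1 h. For armyworm, excised treated leaves were offered to larvae; percent mortality scored after standard exposure periods.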
# [5] = tested on: Erysiphe graminis tritici (powdery mildew); experiment: Test 1 greenhouse foliar spray screen, powdery mildew on wheat; conditions: Blumeria graminis, foliar, Test 1, foliar spray on wheat; disease control rating at 400 ppm / 100 ppm; read-out: POWD MDEW
# [6] = tested on: Pyricularia oryzae (rice blast); experiment: whole plant or invertebrate; conditions: for pest or weed control at 400 ppm: Pyricularia oryzae, foliar, read-out: RICE BLAST, Test 1, foliar spray on rice, disease control rating at 400 ppm / 100 ppm
# [7] = tested on: melon aphids (Aphis gossypii Glover); experiment: Mite/insect screen, MA; conditions: Aphis gossypii, foliar, percent mortality, foliar spray on squash, read-out: MA RESULTS %; for mortality at 200 ppm: rate 200 ppm
# In short: as §1
# [8] = tested on: Pseudoperonospora cubensis (downy mildew); experiment: Test 1 greenhouse foliar spray screen, downy mildew on squash; conditions: for pest or weed control at 400 ppm: Pseudoperonospora cubensis, foliar, Test 1, foliar spray on squash, disease control rating at 400 ppm / 100 ppm, read-out: DOWN MDEW; for activity against downy mildew: summary statement in the description
# [9] = tested on: Venturia inaequalis (apple scab); experiment: Test 1 greenhouse foliar spray screen, apple scab on apple seedling; conditions: Venturia inaequalis; Test 1, foliar spray on apple seedling; disease control rating at 400 ppm / 100 ppm; read-out: APPL SCAB
# Sphaerotheca fuliginea = experiment: Field tests against plant pathogens; conditions: field test, crop cucumber
# From the text: (§2) Selected compounds were field tested against a variety of plant pathogens. […]
# Plasmopara viticola = experiment: Field tests against plant pathogens; conditions: field test, crop grape
# From the text: as §2
# Alternaria brassica = experiment: Field tests against plant pathogens; conditions: field test, crop rape
# From the text: as §2
# Pyrenophora teres = experiment: Field tests against plant pathogens; conditions: field test, crop barley
# From the text: as §2
# Rhynchosporium secalis = experiment: Field tests against plant pathogens; conditions: field test, crop barley
# From the text: as §2
# Uncinula necator = experiment: Field tests against plant pathogens; conditions: field test, crop grape
# From the text: as §2
# Podosphaera leucotricha = experiment: Field tests against plant pathogens; conditions: field test, crop apple
# From the text: as §2
# [10] = tested on: Pseudocercosporella herpotrichoides; experiment: Field tests against plant pathogens; conditions: field test, crop wheat
# From the text: as §2
# [11] = tested on: Erysiphe graminis tritici; experiment: Field tests against plant pathogens; conditions: field test, crop wheat
# From the text: as §2
# [12] = tested on: Puccinia recondita tritici (leaf rust); experiment: Test 1 greenhouse foliar spray screen, leaf rust on wheat; conditions: Puccinia recondita, foliar, Test 1, foliar spray on wheat; disease control rating at 400 ppm / 100 ppm
# plant pathogens = experiment: Fungicidal efficacy against a broad spectrum of plant pathogens (summary of screen); conditions: summary statement in the description
# [13] = tested on: Cercospora beticola (leaf spot); experiment: Test 1 greenhouse foliar spray screen, leaf spot on sugar beet; conditions: Cercospora beticola; Test 1, foliar spray on sugar beet; disease control rating at 400 ppm / 100 ppm
# twospotted spider mite = experiment: Field trials against pest species; conditions: field trial, host broccoli
# Experimental: (§3) 4-[2-[4-(t-Butyl)phenyl]ethoxy]-8-fluoroquinoline (Example 221) was evaluated in a number of field trials. […]
# white apple leafhopper = experiment: Field trials against pest species; conditions: field trial, host apples
# Experimental: as §3
# apple aphid = experiment: Field trials against pest species; conditions: field trial, host apples
# Experimental: as §3
# mites = experiment: Field trials against pest species; conditions: field trial, host apples
# Experimental: as §3
# grape leafhopper = experiment: Field trials against pest species; conditions: field trial, host grape (European)
# Experimental: as §3
# Dawson-hop aphid = experiment: Field trials against pest species; conditions: field trial, host hops
# Experimental: as §3
# rosy apple aphid = experiment: Field trials against pest species; conditions: field trial, host apples
# Experimental: as §3
# yellow hickory aphid = experiment: Field trials against pest species; conditions: field trial, host pecan nut
# Experimental: as §3
# green peach aphid = experiment: Field trials against pest species; conditions: field trial
# Experimental: as §3
# greenhouse thrip = experiment: Field trials against pest species; conditions: field trial, host azaleas
# Experimental: as §3
# pea aphid = experiment: Field trials against pest species; conditions: field trial
# Experimental: as §3
# wheat aphid = experiment: Field trials against pest species; conditions: field trial, host wheat
# Experimental: as §3
# green cloverworm = experiment: Field trials against pest species; conditions: field trial, host alfalfa (Lucerne)
# Experimental: as §3
# grape thrip = experiment: Field trials against pest species; conditions: field trial, host grape (European)
# Experimental: as §3
# European red mite = experiment: Field trials against pest species; conditions: field trial, host apples
# Experimental: as §3
# cotton aphid = experiment: Field trials against pest species; conditions: field trial, host cotton
# Experimental: as §3
# potato leaf hopper = experiment: Field trials against pest species; conditions: field trial, host alfalfa (Lucerne)
# Experimental: as §3
# bean aphid = experiment: Field trials against pest species; conditions: field trial, host bean, faba broad
# Experimental: as §3
# tarnished plant bug = experiment: Field trials against pest species; conditions: field trial, host alfalfa (Lucerne)
# Experimental: as §3
# thrip = experiment: Field trials against pest species; conditions: field trial, host privet
# Experimental: as §3
# apple rust mite = experiment: Field trials against pest species; conditions: field trial, host apples
# Experimental: as §3
# Erysiphe sp. = experiment: Field tests against plant pathogens; conditions: field test, crop sugar beet
# From the text: as §2
# [14] = Tetranychus urticae, foliar, percent mortality, foliar spray on squash, read-out: SM RESULTS %
# [15] = summary statement in the description
structure (smiles),measurement,setting,value
"Cc1ccc(CCOc2ccnc3c(F)cccc23)cc1 [Example 212, 8-fluoro-4-[2-(4-methylphenyl)ethoxy]quinoline]",pest or weed control at 400 ppm,[1],0 to 19%
same,pathogens against which compounds of the invention showed activity,Piricularia oryzae,Piricularia oryzae
same,mortality at 12 ppm,corn rootworm,0%
same,mortality at 200 ppm,[2]; [14],0%
same,pest or weed control at 400 ppm,[3],90 to 100%
same,mortality at 200 ppm,[4],0%
same,pest or weed control at 400 ppm,[5],90 to 100%
same,pest or weed control at 400 ppm,[6],90 to 100%
same,activity against rice blast,[6]; [15],particularly excellent activity
same,mortality at 200 ppm,[7],0%
same,pest or weed control at 400 ppm,[8],90 to 100%
same,activity against downy mildew,[8],particularly excellent activity
same,pest or weed control at 400 ppm,[9],90 to 100%
same,pathogens against which compounds of the invention showed activity,Sphaerotheca fuliginea,Sphaerotheca fuliginea
same,pathogens against which compounds of the invention showed activity,Plasmopara viticola,Plasmopara viticola
same,pathogens against which compounds of the invention showed activity,Alternaria brassica,Alternaria brassica
same,pathogens against which compounds of the invention showed activity,Pyrenophora teres,Pyrenophora teres
same,pathogens against which compounds of the invention showed activity,Rhynchosporium secalis,Rhynchosporium secalis
same,pathogens against which compounds of the invention showed activity,Uncinula necator,Uncinula necator
same,pathogens against which compounds of the invention showed activity,Podosphaera leucotricha,Podosphaera leucotricha
same,pathogens against which compounds of the invention showed activity,[10],Pseudocercosporella herpotrichoides
same,pathogens against which compounds of the invention showed activity,[11],Erysiphe graminis tritici
same,pest or weed control at 400 ppm,[12],90 to 100%
same,activity against a broad spectrum of plant pathogens,plant pathogens,particularly excellent activity
same,pest or weed control at 400 ppm,[13],0 to 19%
"CC(C)(C)c1ccc(CCOc2ccnc3c(F)cccc23)cc1 [Example 221, 4-[2-[4-(t-butyl)phenyl]ethoxy]-8-fluoroquinoline]",pest or weed control at 400 ppm,[1],0 to 19%
same,mortality at 12 ppm,corn rootworm,40%
same,mortality at 24 ppm,corn rootworm; CRW rate 24.00 ppm,0%
same,mortality at 200 ppm,[2]; [14],90%
same,mortality at 400 ppm,"[2]; Tetranychus urticae, foliar, percent mortality, rate 400 ppm, foliar spray on squash, read-out: SM RESULTS %",90%
same,activity as miticides,[2]; [15],particularly excellent activity
same,pest or weed control at 400 ppm,[3],90 to 100%
same,mortality at 200 ppm,[4],0%
same,mortality at 400 ppm,[4]; rate 400 ppm,0%
same,pest or weed control at 400 ppm,[5],20 to 89%
same,pest or weed control at 400 ppm,[6],0 to 19%
same,mortality at 200 ppm,[7],90%
same,mortality at 400 ppm,[7]; rate 400 ppm,80%
same,pest or weed control at 400 ppm,[8],90 to 100%
same,activity against downy mildew,[8],particularly excellent activity
same,pest species against which it showed activity,twospotted spider mite,twospotted spider mite
same,pest species against which it showed activity,white apple leafhopper,white apple leafhopper
same,pest species against which it showed activity,apple aphid,apple aphid
same,pest species against which it showed activity,mites,mites
same,pest species against which it showed activity,grape leafhopper,grape leafhopper
same,pest species against which it showed activity,Dawson-hop aphid,Dawson-hop aphid
same,pest species against which it showed activity,rosy apple aphid,rosy apple aphid
same,pest species against which it showed activity,yellow hickory aphid,yellow hickory aphid
same,pest species against which it showed activity,green peach aphid; host apples,green peach aphid
same,pest species against which it showed activity,green peach aphid; host sugar beet,green peach aphid
same,pest species against which it showed activity,greenhouse thrip,greenhouse thrip
same,pest species against which it showed activity,pea aphid; host alfalfa (Lucerne),pea aphid
same,pest species against which it showed activity,"pea aphid; host pea, garden (English)",pea aphid
same,pest species against which it showed activity,wheat aphid,wheat aphid
same,pest species against which it showed activity,green cloverworm,green cloverworm
same,pest species against which it showed activity,grape thrip,grape thrip
same,pest species against which it showed activity,European red mite,European red mite
same,pest species against which it showed activity,cotton aphid,cotton aphid
same,pest species against which it showed activity,potato leaf hopper,potato leaf hopper
same,pest species against which it showed activity,bean aphid,bean aphid
same,pest species against which it showed activity,tarnished plant bug,tarnished plant bug
same,pest species against which it showed activity,thrip,thrip
same,pest species against which it showed activity,apple rust mite,apple rust mite
same,pest or weed control at 400 ppm,[9],20 to 89%
same,pathogens against which compounds of the invention showed activity,Erysiphe sp.,Erysiphe sp.
same,pest or weed control at 400 ppm,[12],90 to 100%
same,pest or weed control at 400 ppm,[13],90 to 100%
